Calls of active or inactive are those of the source. The calls are words filed in the database; no cut-off is given here.
Key:
[1] = (§1) Inhibition of TRF2 expression in human U2OS cells at 2 uM measured after 48 hrs by Western blot analysis relative to control; format: functional
[2] = (§2) Inhibition of TRF2 expression in human MG-63 cells at 2 uM measured after 48 hrs by Western blot analysis relative to control; format: functional
[3] = test system: U2OS; assay: Antiproliferative activity against human U2OS cells assessed as reduction in cell viability incubated for 48 hrs by MTT assay; format: functional, cell-based
[4] = test system: MG-63; assay: Antiproliferative activity against human MG-63 cells assessed as reduction in cell viability incubated for 48 hrs by MTT assay; format: functional, cell-based; details: MG-63, 48 h
[5] = Cytotoxicity against […] MLO-Y4 cells assessed as cell viability incubated for 48 hrs by MTT assay; format: toxicity, cell-based; details: mouse
[6] = test system: MG-63; assay: as §2; format: functional
[7] = test system: U2OS; assay: as §1; format: functional

Row | Compound | inhibition at 2 µM [1] [%] | inhibition at 2 µM [2] [%] | IC50 [3] [µM] | IC50 [4] [µM] | IC50 at 48 h [5] [µM] | inhibition [6] | inhibition [7]
1 | COc1cc(O)c(C(=O)/C=C/c2cccc(Br)c2)c(OC)c1 | 18.3 | 37.8 | 8.75 | 4.34 | 19.6 |  | 
2 | COc1cc(OC2CCCOC2)ccc1C(=O)/C=C/c1cccc(Br)c1 (stereo not given) | 31.8 | 23.7 |  |  |  |  | 
3 | COc1cc(N2CCOCC2)ccc1C(=O)/C=C/c1cc(Br)cc(Br)c1 | 33.2 | 40.2 |  |  |  |  | 
4 | CCOC(=O)COc1ccc(C(=O)/C=C/c2cc(Br)cc(Br)c2)c(OC)c1 | 39.2 |  |  |  |  | inactive | 
5 | COc1cc(OC)c2c(=O)cc(-c3cccc(Br)c3)oc2c1 | 33.7 | 23.8 |  |  |  |  | 
6 | O=C(/C=C/c1cc(Br)cc(Br)c1)c1ccc2c(c1)OCCO2 | 36.7 | 37.6 |  |  |  |  | 
7 | COc1ccc(CNC(=O)Nc2ncc([N+](=O)[O-])s2)cc1 | 9.2 | 14.6 | 32.8 | 37.8 | > 100 |  | 
8 | COc1cc(O)c(C(=O)/C=C/c2cc(Cl)ccn2)c(OC)c1 | 32.9 | 41.3 |  |  |  |  | 
9 | COc1cc(O)ccc1C(=O)/C=C/c1cc(Br)cc(Br)c1 | 42.1 | 22.2 |  |  |  |  | 
10 | CCOC(=O)COc1ccc(C(=O)/C=C/c2cccc(Br)c2)c(OC)c1 | 37.3 |  |  |  |  | inactive | 
11 | COc1cccc(O)c1C(=O)/C=C/c1cccc(Br)c1 | 35 | 40.6 |  |  |  |  | 
12 | COc1cc(OCC(=O)O)ccc1C(=O)/C=C/c1cc(Br)cc(Br)c1 | 52 | 34.8 | 32.9 | 22.8 | > 100 |  | 
13 | CCOc1ccc(C(=O)/C=C/c2cccc(Br)c2)c(OCC)c1 |  | 36.1 |  |  |  |  | inactive
14 | COc1ccc(C(=O)/C=C/c2cc(Br)cc(Br)c2)c(OC)c1 | 22.5 | 52.5 |  |  |  |  | 
15 | COc1cc(OCC(=O)O)ccc1C(=O)/C=C/c1cccc(Br)c1 | 52.5 |  |  |  |  | inactive | 
16 | COc1cc(N2CCOCC2)ccc1C(=O)/C=C/c1cccc(Br)c1 | 25.1 | 22.7 |  |  |  |  | 
17 | O=C(/C=C/c1cccc(Br)c1)c1ccc2c(c1)OCCO2 | 39.5 | 48.5 | 13.2 | 6.81 | 76.5 |  | 
18 | COc1cc(O)c(C(=O)CCc2cccc(Br)c2)c(OC)c1 | 34.5 | 32.8 |  |  |  |  | 
19 | COc1cc(OC2CCCOC2)ccc1C(=O)/C=C/c1cc(Br)cc(Br)c1 (stereo not given) |  | 32.2 |  |  |  |  | inactive
20 | COc1ccc(C(=O)/C=C/c2cccc(Br)c2)c(OC)c1 | 45.4 | 29.6 |  |  |  |  | 
21 | COc1cc(O)ccc1C(=O)/C=C/c1cccc(Br)c1 | 9.3 |  |  |  |  | inactive | 
22 | COc1ccc(C(=O)/C=C/c2cccc(Br)c2)c(O)c1 | 51.7 | 44.8 | 7.87 | 7.11 | 7.93 |  | 
23 | CCOc1ccc(C(=O)/C=C/c2cc(Br)cc(Br)c2)c(OCC)c1 |  | 17.1 |  |  |  |  | inactive
24 | COc1cc(O)c(C(=O)/C=C/c2cc(Br)cc(Br)c2)c(OC)c1 | 13.8 | 22.1 |  |  |  |  | 
25 | COc1cc(OC)c(C(=O)/C=C/c2cc(Br)cc(Br)c2)c(OC)c1 | 31.1 | 31.4 |  |  |  |  | 

From ChEMBL document CHEMBL6153097, “Design, synthesis, and biological evaluation of Flavokavain B derivatives as potent TRF2 inhibitors for the treatment of Osteosarcoma” (Eur J Med Chem, 2025)
